Results from ChEMBL document CHEMBL1201862, “PubChem BioAssay data set” (2004).
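Five compound concentrations were applied to cells in 96-well plates for 48 hours; endpoints were derived by simple linear interpolation of the resulting dose-response curve. Abbreviation: GI50, concentration required for 50% inhibition of growth.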 Calls of active or inactive are those of the source. Cut-off read from the data, not from the text of the source: active = GI50 up to about 1.1 µM and inactive = higher.

Columns and labels:
Experiment in all cases: inhibition of tumour cell growth, NCI panel, 48 h
NCI/ADR-RES = test system: NCI/ADR-RES
SK-MEL-28 = test system: SK-MEL-28
MOLT-4 = test system: MOLT-4
CCRF-CEM = test system: CCRF-CEM
HT-29 = test system: HT-29
IGROV-1 = test system: IGROV-1
OVCAR-3 = test system: OVCAR-3
OVCAR-5 = test system: OVCAR-5
UACC-62 = test system: UACC-62
COLO 205 = test system: COLO 205
RXF 393 = test system: RXF 393
MCF7 = test system: MCF7
HL-60 = test system: HL-60
PC-3 = test system: PC-3
SK-MEL-2 = test system: SK-MEL-2
MDA-MB-435 = test system: MDA-MB-435
BT-549 = test system: BT-549
786-0 = test system: 786-0
ACHN = test system: ACHN
NCI-H23 = test system: NCI-H23
HCC 2998 = test system: HCC 2998
NCI-H226 = test system: NCI-H226
A549 = test system: A549
SF-268 = test system: SF-268
Hs-578T = test system: Hs-578T
A498 = test system: A498
HOP-92 = test system: HOP-92
SK-OV-3 = test system: SK-OV-3
TK-10 = test system: TK-10
SW-620 = test system: SW-620
OVCAR-8 = test system: OVCAR-8
SNB-75 = test system: SNB-75
HOP-62 = test system: HOP-62
HCT-15 = test system: HCT-15
KM12 = test system: KM12
K562 = test system: K562
UACC-257 = test system: UACC-257
HCT-116 = test system: HCT-116
SF-295 = test system: SF-295
UO-31 = test system: UO-31
LOX IMVI = test system: LOX IMVI
NCI-H522 = test system: NCI-H522
EKVX = test system: EKVX
RPMI-8226 = test system: RPMI-8226
SR = test system: SR
Malme-3M = test system: Malme-3M
DU-145 = test system: DU-145
CAKI-1 = test system: CAKI-1
M14 = test system: M14
MDA-N = test system: MDA-N
SN12C = test system: SN12C
SNB-19 = test system: SNB-19
T47D = test system: T47D
U-251 = test system: U-251
SK-MEL-5 = test system: SK-MEL-5
OVCAR-4 = test system: OVCAR-4
MDA-MB-231 = test system: MDA-MB-231
NCI-H460 = test system: NCI-H460

C/C1=C\CC[C@@]2(C)O[C@@H]2C[C@@H]2[C@H](C/C(C)=C/CC1)OC(=O)[C@]21CO1
GI50 (NCI/ADR-RES): > 100 µM (inactive)
GI50 (SK-MEL-28): > 100 µM (inactive)
GI50 (MOLT-4): 22 µM (inactive)
GI50 (CCRF-CEM): 46.2 µM (inactive)
GI50 (HT-29): 69.3 µM (inactive)
GI50 (IGROV-1): 42.2 µM (inactive)
GI50 (OVCAR-3): > 100 µM (inactive)
GI50 (OVCAR-5): > 100 µM (inactive)
GI50 (UACC-62): 75.5 µM (inactive)
GI50 (COLO 205): > 100 µM (inactive)
GI50 (RXF 393): > 100 µM (inactive)
GI50 (MCF7): 41.5 µM (inactive)
GI50 (HL-60): > 100 µM (inactive)
GI50 (PC-3): > 100 µM (inactive)
GI50 (SK-MEL-2): > 100 µM (inactive)
GI50 (MDA-MB-435): 65.8 µM (inactive)
GI50 (BT-549): > 100 µM (inactive)
GI50 (786-0): > 100 µM (inactive)
GI50 (ACHN): > 100 µM (inactive)
GI50 (NCI-H23): > 100 µM (inactive)
GI50 (HCC 2998): 78.9 µM (inactive)
GI50 (NCI-H226): > 100 µM (inactive)
GI50 (A549): 65.2 µM (inactive)
GI50 (SF-268): > 100 µM (inactive)
GI50 (Hs-578T): > 100 µM (inactive)
GI50 (A498): > 100 µM (inactive)
GI50 (HOP-92): > 100 µM (inactive)
GI50 (SK-OV-3): > 100 µM (inactive)
GI50 (TK-10): > 100 µM (inactive)
GI50 (SW-620): 68.7 µM (inactive)
GI50 (OVCAR-8): > 100 µM (inactive)
GI50 (SNB-75): > 100 µM (inactive)
GI50 (HOP-62): > 100 µM (inactive)
GI50 (HCT-15): > 100 µM
GI50 (KM12): 28.8 µM (inactive)
GI50 (K562): 34.4 µM (inactive)
GI50 (UACC-257): > 100 µM (inactive)
GI50 (HCT-116): 41.5 µM (inactive)
GI50 (SF-295): > 100 µM (inactive)
GI50 (UO-31): > 100 µM (inactive)
GI50 (LOX IMVI): 19.6 µM (inactive)
GI50 (NCI-H522): 32.5 µM (inactive)
GI50 (EKVX): > 100 µM (inactive)
GI50 (RPMI-8226): 51.5 µM (inactive)
GI50 (SR): 36.7 µM (inactive)
GI50 (Malme-3M): > 100 µM (inactive)
GI50 (DU-145): > 100 µM (inactive)
GI50 (CAKI-1): > 100 µM (inactive)
GI50 (M14): > 100 µM (inactive)
GI50 (MDA-N): 61.1 µM (inactive)
GI50 (SN12C): 74.5 µM (inactive)
GI50 (SNB-19): > 100 µM (inactive)
GI50 (T47D): > 100 µM (inactive)
GI50 (U-251): 63.8 µM (inactive)
GI50 (SK-MEL-5): > 100 µM (inactive)
GI50 (OVCAR-4): > 100 µM (inactive)
GI50 (MDA-MB-231): > 100 µM (inactive)
GI50 (NCI-H460): 20.7 µM (inactive)
